Patent US10322143B2, “Inhibitors of ADAMTS4 or ADAMTS5 for use in preventing or treating cardiac remodeling and chronic heart failure” (Universitetet i Oslo, priority 2013, dated 2019)
Marks after values point to notes of the source that are not given here.

Experiments:
ADAMTS5 mRNA = ADAMTS5 mRNA level (qRT-PCR) in MI rats; format: in vivo, rat; details: PPS-treatment
Procedure: (§1) At day 0 to 3 (median 2) after surgery, infarct size was quantified by echocardiography using the Vevo2100 system (Visualsonics Inc, Canada) and magnetic resonance imaging (MRi) using a 9.4 T/210 mm/ASR horizontal bore magnet (Agilent Technologies, Inc., USA). Initially, echocardiography was performed to select moderate to large infarcts ranging approximately 40 to 50%. Thereafter, infarct sizes were exactly measured by late-enhancement gadolinium MRi analyses (Bohl S., et al. American Journal of Physiology, 2009; 296 (4): H1200-H1208) and stratified into small infarcts (stratum 1: <43%, stratum 2: 43-48%), and large infarcts (stratum 3: 48-53%, stratum 4: >53%). The rats in each MI stratum and sham group were randomized to receive intervention or control treatment. The intervention group was treated with 6 mg/kg of sodium PPS (Interfarm AS, Norway), while the control group received vehicle (0.9% NaCl), both injected subcutaneously every third day starting from post-operative day 8-10.
The mRNA levels of the ADAMTS versicanases ADAMTS1, -4, -5, -8, and -20 (Shiomi T, et al. Pathology International 2010; 60(7):477-96), versican, aggrecan, syndecan-4, tissue inhibitor metalloprotease (TIMP)-3, and membrane-type (MT)4-MMP, were quantified in rat left ventricle by qRT-PCR, as previously described in Example 1.

versican = assay: Versican DPEEAE fragments (immunoblotting) in MI rats; format: in vivo, rat; details: PPS-treatment
Procedure: as §1
Fractional protein lysates from myocardium of rats having undergone MI treated with PPS or vehicle were extracted as previously described in Example 1 and Didangelos et al. (Journal of Biological Chemistry 2012 Jun. 1; 287(23):19341-5). Protein concentrations were measured by western blotting as previously described in Example 1. […]

[1] = test system: myocardial infarction rats; assay: Myocardial infarction rat model: echocardiography, MRI and organ weights after PPS-treatment; format: in vivo; details: for EDV (end-diastolic volume, MRI) / Heart weight / LAD (left atrial diameter) / LVDd (left ventricular diameter at diastole) / Lung weight / Max. syst velocity (maximum systolic velocity) / RV weight / VTI (velocity time integral): median (interquartile range)
Text: Male Wistar rats weighing 160-170 grams (approximately 7 weeks old) (Taconic, Skensved Denmark) underwent MI (myocardial infarction) by left coronary artery ligation as described previously (Sjaastad I, et al. J Appl Physiol 2000 October; 89(4):1445-54). In all surgical procedures performed, a mixture of 67% N2O, 28% O2, and 4% isoflurane in an anesthesia chamber was used for preoperative sedation. To maintain anesthesia preoperatively, a mixture of 69% N2O, 29% O2, and 2% isoflurane was given by the endotracheal tube and the animals were ventilated on a respirator (Zoovent, Triumph Technical Services, Milton Keynes, UK). Buprenorphine (0.2 mg/kg) was given as postoperative analgesia after MI. Rats were housed in cages (one or two rats in each cage) with Bee Kay bedding (Scanbur B K, Nittedal, Norway) in 55% humidity on a 12 h light/dark cycle, with food pellets (RM1, 801151, Scanbur B K) and water ad libitum.
as §1
After receiving PPS- or vehicle-treatment for 51 to 56 days (median 55 days), rats were sacrificed after examination by experienced investigators blinded to treatment group. In vivo heart function was evaluated as previously described with echocardiography (Sjaastad I, et al., J Appl Physiol 2000 October; 89(4):1445-54) and MRi (Espe E., Journal of Cardiovascular Magnetic Resonance 2013; 15(1):82). Thereafter, the heart and lung was excised under deep anesthesia, washed in saline and blotted dry to remove blood in the cardiac chambers. The heart chambers were separated by rapid dissection, before left ventricles were divided into infarcted and viable tissue. Lungs and cardiac tissue were snap-frozen in liquid nitrogen and stored at −70° C. until RNA and protein analyses.

[2] = MI strata 1 + 2 (small infarcts) PPS, 6 mg/kg s.c. every third day from day 8-10
[3] = MI strata 3 + 4 (large infarcts) PPS, 6 mg/kg s.c. every third day from day 8-10
[4] = Sham PPS, 6 mg/kg s.c. every third day
[5] = rats with large infarcts, PPS vs vehicle

pentosan polysulfate [PPS]
ADAMTS5 mRNA levels (ADAMTS5 mRNA): decreased | versican DPEEAE fragments (versican): decreased | side effects including hemorrhage ([1]; MI rats, 6 mg/kg s.c. every third day, observed daily): no side effects | EDV (end-diastolic volume, MRI) [1, 2]: 614 (524-707) | Heart weight [1, 2]: 1610 (1450-1760) mg | LAD (left atrial diameter) [1, 2]: 5.32 (4.25-6.50) mm | LVDd (left ventricular diameter at diastole) [1, 2]: 9.91 (9.50-10.29) mm | Lung weight [1, 2]: 1930 (1450-3420) mg | Max. syst velocity (maximum systolic velocity) [1, 2]: 39.7 (28.3-57.5) | RV weight [1, 2]: 300 (180-345) mg | VTI (velocity time integral) [1, 2]: 57.9 (50.8-69.6) mm | EDV (end-diastolic volume, MRI) [1, 3]: 644 (552-709) | Heart weight [1, 3]: 1595 (1475-1710) mg | LAD (left atrial diameter) [1, 3]: 6.88 (5.51-7.31) mm | LVDd (left ventricular diameter at diastole) [1, 3]: 10.25 (9.51-10.75) mm | Lung weight [1, 3]: 2770 (1990-3385) mg | Max. syst velocity (maximum systolic velocity) [1, 3]: 41.7 (31.2-52.0)* | RV weight [1, 3]: 395 (355-523) mg | VTI (velocity time integral) [1, 3]: 69.8 (51.1-75.9)* mm | EDV (end-diastolic volume, MRI) [1, 4]: 293 (256-346) | Heart weight [1, 4]: 1005 (980-1248) mg | LAD (left atrial diameter) [1, 4]: 3.67 (3.45-3.73) mm | LVDd (left ventricular diameter at diastole) [1, 4]: 6.91 (6.60-7.88) mm | Lung weight [1, 4]: 1255 (1158-1280) mg | Max. syst velocity (maximum systolic velocity) [1, 4]: 64.0 (46.6-67.2) | RV weight [1, 4]: 168 (160-208) mg | VTI (velocity time integral) [1, 4]: 58.5 (53.9-65.5) mm | reduction in heart weight ([1]; rats with large infarcts, PPS vs corresponding vehicle-treated rats): ~25% | maximum systolic velocity after PPS-treatment [1, 5]: improved | reduction in left atrial diameter [1, 5]: 10% | reduction in lung weight [1, 5]: 1/3 | velocity time integral after PPS-treatment [1, 5]: improved
